Results reported in patent US20080254986A1, “Use of piperonyl butoxide to protect plants” (priority 2007, published 2008).

Tests used:
Assay type in all cases: in vivo
Impatiens plants [1] = experiment: Marketability of Impatiens plants, ABA drench and PBO foliar spray
Method: (§1) Ornamental Plants were purchased from local greenhouse retail outlets and allowed to equilibrate to greenhouse conditions for a minimum of 48 hours before experiments were performed.
(§2) To quantify resistance of plants to wilting, a wilt index was developed. The wilt index uses numerical values of 1-4 (1=no wilt, 4=completely wilted and loss of turgor) to express wilt status. A wilt index was determined for each individual plant assessed daily. When the wilt index was equal to or exceeded 2.5, the plant was considered not salable, and the last day prior to that was considered its last marketable day
To better determine the effectiveness of PBO on ABA effectiveness, a spatial separation in application methodology was used. That is, water or ABA were drench applied at 10% of the pot volume, followed by a spray application to the foliage of Tween 20 (0.05%) in water, either alone, or in combination with 1000 ppm PBO.
In Table 6, the rate of ABA in the drench application is varied in order to determine the effect of PBO sprays on ABA rate.

Impatiens plants [2] = experiment: Marketability (days marketable) of Impatiens plants after sprays
Method: as §1, §2
When the wilt incidence was less than 2.5, the treated plants were considered saleable. The duration of salability was determined for individual plants and the values averaged (Table 4).

cotton [3] = experiment: Stomatal conductance of cotton plants after spray application
Method: Cotton was planted and grown at 25° C. under a 16:8 photoperiod for 14 days. After two weeks, plants were moved to the greenhouse (25±2° C., 16:8 photoperiod) for an additional three weeks before treatment.
[…] Transpiration rate of each treatment was calculated as the percentage of that of control at each day to eliminate day-to-day variation caused by changes of environmental condition such as light intensity and temperature.
In cotton, ABA, PBO and the combination were applied to evaluate the effect on stomatol conductance. A decrease in stomatal aperture, reflected in the conductance measures, is an immediate and direct effect of applied ABA (Finkelstein and Rock, 2002).

Impatiens plants [4] = experiment: Wilt index of Impatiens plants after spray application
Method: as §1, §2
In the ornamental plant Impatiens, spray applications were made to evaluate the effects of ABA, PBO or the combination to increase the number of days until the plants wilted. Using a wilt index of 1-4 (1=no wilt, 4=completely wilted and loss of turgor), plants were evaluated following spray application.

Viola (Violet) = experiment: Marketability of Viola (Violet) after sprays
Method: as §1, §2
To determine if the combination of ABA and PBO is effective at increasing marketable life of other ornamental plants, Viola plants (Violet) were used. All applications were made by spray to fully hydrated plants. Spray solutions were applied as soon as possible after mixing. All spray applications contained Tween 20 at 0.05% (v/v).

Pansy = experiment: Marketability of Pansy after sprays
Method: as §1, §2
To determine if the ABA, PBO, or the combination of ABA and PBO is effective at increasing marketable life of other ornamental plants, Pansy plants were used. All applications were made by spray to fully hydrated plants. Solutions were applied as soon as possible after mixing. All spray applications contained Tween 20 at 0.05% (v/v). Plants were held in a greenhouse without further irrigation.

cotton [5] = experiment: Stomatal conductance of cotton plants after drench application; conditions: for Reduction of stomatal conductance: drench 50 ppm ABA
Method: Cotton was planted and grown at 25° C. under a 16:8 photoperiod for 14 days. After two weeks, plants were moved to the greenhouse (25±2° C., 16:8 photoperiod) for an additional three weeks before treatment. […] Transpiration rate of each treatment was calculated as the percentage of that of control at each day to eliminate day-to-day variation caused by changes of environmental condition such as light intensity and temperature. In cotton, ABA, PBO and the combination were applied to evaluate the effect on stomatol conductance. A decrease in stomatal aperture, reflected in the conductance measures, is an immediate and direct effect of applied ABA (Finkelstein and Rock, 2002).

[6] = spray 50 ppm, 0 hours after application
[7] = spray 50 ppm, 5 hours after application
[8] = spray 50 ppm, 24 hours after application
[9] = spray 50 ppm, 48 hours after application
[10] = spray 50 ppm, 72 hours after application
[11] = spray 50 ppm, 96 hours after application
[12] = drench 50 ppm, 0 hours after application
[13] = drench 50 ppm, 5 hours after application
[14] = drench 50 ppm, 24 hours after application
[15] = drench 50 ppm, 48 hours after application
[16] = drench 50 ppm, 72 hours after application
[17] = drench 50 ppm, 96 hours after application
[18] = spray PBO 1000 ppm + Tween 20 0.05%

S-(+)-abscisic acid [ABA]
Days Marketable (Wilt index less than 2.5) (Impatiens plants [1]; Table 5, drench ABA 200 ppm, spray Tween 20 0.05%): 7.69 days | Days Marketable (Wilt index less than 2.5) (Impatiens plants [1]; Table 6, drench ABA 50 ppm, spray Tween 20 0.05%): 6.5 days | Days Marketable (Wilt index less than 2.5) (Impatiens plants [1]; Table 6, drench ABA 200 ppm, spray Tween 20 0.05%): 8.1 days | Increase in shelf life without watering (Impatiens plants [2]; ABA spray 200 ppm versus control spray): almost two day increase | Days Marketable (Wilt index less than 2.5) (Impatiens plants [2]; spray ABA 200 ppm + Tween 20 0.05%): 7.5 days | Decrease in stomatal conductance (cotton [3]; ABA spray, 5 hours after spray application): 58.9% | Percent Conductance (stomatal conductance, control = 100%) (cotton [3]; [6]): 101.1% | Percent Conductance (stomatal conductance, control = 100%) (cotton [3]; [7]): 41.1% | Percent Conductance (stomatal conductance, control = 100%) (cotton [3]; [8]): 86.2% | Percent Conductance (stomatal conductance, control = 100%) (cotton [3]; [9]): 91.9% | Percent Conductance (stomatal conductance, control = 100%) (cotton [3]; [10]): 102.0% | Percent Conductance (stomatal conductance, control = 100%) (cotton [3]; [11]): 100.6% | Wilt Index (1 = no wilt; 4 = plants wilted, complete loss of turgor) (Impatiens plants [4]; spray ABA 200 ppm + Tween 20 0.05%, 0 days after spray): 1 | Wilt Index (1 = no wilt; 4 = plants wilted, complete loss of turgor) (Impatiens plants [4]; spray ABA 200 ppm + Tween 20 0.05%, 4 days after spray): 1.00 | Wilt Index (1 = no wilt; 4 = plants wilted, complete loss of turgor) (Impatiens plants [4]; spray ABA 200 ppm + Tween 20 0.05%, 5 days after spray): 1.27 | Wilt Index (1 = no wilt; 4 = plants wilted, complete loss of turgor) (Impatiens plants [4]; spray ABA 200 ppm + Tween 20 0.05%, 6 days after spray): 1.66 | Wilt Index (1 = no wilt; 4 = plants wilted, complete loss of turgor) (Impatiens plants [4]; spray ABA 200 ppm + Tween 20 0.05%, 7 days after spray): 2.31 | Days Marketable (Wilt index less than 2.5) (Viola (Violet); spray ABA 100 ppm + Tween 20 0.05%): 8.0 days | Days Marketable (Wilt index less than 2.5) (Pansy; spray ABA 7.5 mg + Tween 20 0.05%): 7.6 days | Reduction of stomatal conductance (cotton [5]; 5 hours post drench): 44% | Reduction of stomatal conductance (cotton [5]; 24 hours post drench): 22.5% | Percent Conductance (stomatal conductance, control = 100%) (cotton [5]; [12]): 100.3% | Percent Conductance (stomatal conductance, control = 100%) (cotton [5]; [13]): 56.0% | Percent Conductance (stomatal conductance, control = 100%) (cotton [5]; [14]): 77.5% | Percent Conductance (stomatal conductance, control = 100%) (cotton [5]; [15]): 85.8% | Percent Conductance (stomatal conductance, control = 100%) (cotton [5]; [16]): 83.9% | Percent Conductance (stomatal conductance, control = 100%) (cotton [5]; [17]): 104.3%

CCCCOCCOCCOCc1cc2c(cc1CCC)OCO2 [PBO, piperonyl butoxide]
Days Marketable (Wilt index less than 2.5) (Impatiens plants [1]; Table 5, drench water, spray PBO 1000 ppm + Tween 20 0.05%): 6.69 days | Days Marketable (Wilt index less than 2.5) (Impatiens plants [1]; Table 6, drench water, spray PBO 1000 ppm + Tween 20 0.05%): 6.5 days | Days Marketable (Wilt index less than 2.5) (Impatiens plants [2]; [18]): 6.6 days | Increase of the effect of ABA on stomatal conductance by addition of PBO (cotton [3]; PBO 500 ppm added to ABA spray, 5 hours): 27% | Percent Conductance (stomatal conductance, control = 100%) (cotton [3]; [6]): 101.8% | Percent Conductance (stomatal conductance, control = 100%) (cotton [3]; [7]): 89.6% | Percent Conductance (stomatal conductance, control = 100%) (cotton [3]; [8]): 100.7% | Percent Conductance (stomatal conductance, control = 100%) (cotton [3]; [9]): 100.2% | Percent Conductance (stomatal conductance, control = 100%) (cotton [3]; [10]): 90.2% | Percent Conductance (stomatal conductance, control = 100%) (cotton [3]; [11]): 96.2% | Percent Conductance (stomatal conductance, control = 100%) (cotton [3]; spray 500 ppm, 0 hours after application): 103.0% | Percent Conductance (stomatal conductance, control = 100%) (cotton [3]; spray 500 ppm, 5 hours after application): 67.2% | Percent Conductance (stomatal conductance, control = 100%) (cotton [3]; spray 500 ppm, 24 hours after application): 68.5% | Percent Conductance (stomatal conductance, control = 100%) (cotton [3]; spray 500 ppm, 48 hours after application): 81.5% | Percent Conductance (stomatal conductance, control = 100%) (cotton [3]; spray 500 ppm, 72 hours after application): 84.6% | Percent Conductance (stomatal conductance, control = 100%) (cotton [3]; spray 500 ppm, 96 hours after application): 95.2% | Wilt Index (1 = no wilt; 4 = plants wilted, complete loss of turgor) (Impatiens plants [4]; spray PBO 1000 ppm + Tween 20 0.05%, 0 days after spray): 1 | Wilt Index (1 = no wilt; 4 = plants wilted, complete loss of turgor) (Impatiens plants [4]; spray PBO 1000 ppm + Tween 20 0.05%, 4 days after spray): 1.13 | Wilt Index (1 = no wilt; 4 = plants wilted, complete loss of turgor) (Impatiens plants [4]; spray PBO 1000 ppm + Tween 20 0.05%, 5 days after spray): 1.34 | Wilt Index (1 = no wilt; 4 = plants wilted, complete loss of turgor) (Impatiens plants [4]; spray PBO 1000 ppm + Tween 20 0.05%, 6 days after spray): 1.83 | Wilt Index (1 = no wilt; 4 = plants wilted, complete loss of turgor) (Impatiens plants [4]; spray PBO 1000 ppm + Tween 20 0.05%, 7 days after spray): 2.25 | Days Marketable (Wilt index less than 2.5) (Viola (Violet); [18]): 5.9 days | Days Marketable (Wilt index less than 2.5) (Pansy; spray PBO 1.5 mg + Tween 20 0.05%): 5.8 days | Percent Conductance (stomatal conductance, control = 100%) (cotton [5]; [12]): 100.8% | Percent Conductance (stomatal conductance, control = 100%) (cotton [5]; [13]): 84.0% | Percent Conductance (stomatal conductance, control = 100%) (cotton [5]; [14]): 95.1% | Percent Conductance (stomatal conductance, control = 100%) (cotton [5]; [15]): 97.7% | Percent Conductance (stomatal conductance, control = 100%) (cotton [5]; [16]): 91.6% | Percent Conductance (stomatal conductance, control = 100%) (cotton [5]; [17]): 101.5% | Percent Conductance (stomatal conductance, control = 100%) (cotton [5]; drench 500 ppm, 0 hours after application): 100.4% | Percent Conductance (stomatal conductance, control = 100%) (cotton [5]; drench 500 ppm, 5 hours after application): 86.8% | Percent Conductance (stomatal conductance, control = 100%) (cotton [5]; drench 500 ppm, 24 hours after application): 89.8% | Percent Conductance (stomatal conductance, control = 100%) (cotton [5]; drench 500 ppm, 48 hours after application): 96.9% | Percent Conductance (stomatal conductance, control = 100%) (cotton [5]; drench 500 ppm, 72 hours after application): 100.2% | Percent Conductance (stomatal conductance, control = 100%) (cotton [5]; drench 500 ppm, 96 hours after application): 93.1%
